Assay results published in patent US20260070945A1, “MACROCYCLIC IMMUNOMODULATORS” (Bristol-Myers Squibb Company, priority 2022, published 2026).
*1 amine or outer side, *2 acyl side, *3 side chain or, on linkers, in order; H or OH if unused. Where a SMILES comes first, the peptide text is derived from it. Bridges are numbered along the chain shown (N, C = ends). [ ]: non-standard residue; d: D form. The star is where a group is joined. ξ: configuration not given here. Phe(3-CF3) = N[C@@H](Cc1cccc(C(F)(F)F)c1)C(=O)O; Ala(morpholin-4-yl) = N[C@@H](CN1CCOCC1)C(=O)O; Phe(4-COOH) = N[C@@H](Cc1ccc(C(=O)O)cc1)C(=O)O; Bip = N[C@@H](Cc1ccc(-c2ccccc2)cc1)C(=O)O; Phe(3-Me) = Cc1cccc(C[C@H](N)C(=O)O)c1; γGlu = O=C(O)[C@H](CCC(=O)[*:2])N[*:1]; NH(CH2)12COOH = O=C(O)CCCCCCCCCCCCN*; Phe(2-F) = N[C@@H](Cc1ccccc1F)C(=O)O; Val(3-OH) = CC(C)(O)[C@H](N)C(=O)O; 4Pal = N[C@@H](Cc1ccncc1)C(=O)O; Cha = N[C@@H](CC1CCCCC1)C(=O)O; Cit = NC(=O)NCCC[C@H](N)C(=O)O; Ile(3ξ) = CCC(C)[C@H](N)C(=O)O; Thr(3ξ) = CC(O)[C@H](N)C(=O)O; Carboxymethyl = O=C(O)C*; NMeA = CN[C@@H](C)C(=O)O; Nle = CCCC[C@H](N)C(=O)O; Orn = NCCC[C@H](N)C(=O)O; Aun = NCCCCCCCCCCC(=O)O; Dab = NCC[C@H](N)C(=O)O; AEEA = NCCOCCOCC(=O)O

Target: T1, PD-1/PD-L1 interaction (PE-labeled human PD-L1-Ig binding to Jurkat cell line over-expressing human PD-1) (Homo sapiens, UniProt Q15116)
T1 construct: expressed in transfected cells; host or cells: Jurkat
T1 sequence (Q15116 25-288): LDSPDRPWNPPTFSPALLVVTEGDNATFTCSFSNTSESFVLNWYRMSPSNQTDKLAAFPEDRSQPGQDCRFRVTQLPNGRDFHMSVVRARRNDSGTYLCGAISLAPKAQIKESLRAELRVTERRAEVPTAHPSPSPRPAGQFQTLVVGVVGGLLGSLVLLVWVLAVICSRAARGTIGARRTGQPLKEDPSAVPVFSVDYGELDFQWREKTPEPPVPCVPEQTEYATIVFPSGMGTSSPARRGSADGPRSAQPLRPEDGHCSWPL
Assay: Jurkat-PD-1 Cell Binding High-Content Screening Assay (CBA)
Conditions: Jurkat-hPD-1 cells, PE-labeled PD-L1-Ig 20 nM final; read-out: Jurkat HPD1 PDL1 IC50
How it was run: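 Binding of 20 nM (final) PE-tagged PD-L1-Ig to compound-pretreated Jurkat-hPD-1 cells was measured by high-content imaging after 1 h. Pretreatment ran 2 h at 37 °C in DMEM with 10% fetal calf serum.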

Structure (SMILES)	IC50 [nM]
CC(C)C[C@H]1NC(=O)[C@H](C)N(C)C(=O)[C@H](Cc2ccc(C(=O)O)cc2)NC(=O)[C@H](Cc2ccc(-c3ccccc3)cc2)NC(=O)[C@H](Cc2ccc(C(=O)O)cc2)NC(=O)[C@H](Cc2cccc(C(F)(F)F)c2)NC(=O)[C@H](CC(=O)O)NC(=O)[C@H](Cc2ccc(OCC(=O)O)cc2)NC(=O)[C@H](CN2CCOCC2)NC(=O)CSC[C@@H](C(=O)N[C@@H](CCN)C(=O)NCCOCCOCC(=O)N[C@@H](CCC(=O)NCCOCCOCC(=O)NCCCCCCCCCCCCC(=O)O)C(=O)O)NC(=O)[C@H](CO)NC(=O)[C@H](C(C)(C)O)NC(=O)[C@H](CC2CCCCC2)NC(=O)[C@H](CCN)NC1=O [Example 1180] ({CH2CO}-[Ala(morpholin-4-yl)]Y(Carboxymethyl)D[Phe(3-CF3)][Phe(4-COOH)][Bip][Phe(4-COOH)][NMeA][dL][Dab][Cha][Val(3-OH)]SC[Dab][AEEA][γGlu][AEEA]-{NH(CH2)12COOH}; thioether N-14)	91.8
CC(C)C[C@@H]1NC(=O)[C@H](Cc2c[nH]c3ccccc23)NC(=O)[C@H](CC(=O)O)NC(=O)[C@H](Cc2ccc(C(=O)O)cc2)NC(=O)[C@H](Cc2ccc(OCC(=O)O)cc2)NC(=O)CSC[C@@H](C(=O)NCC(=O)N[C@@H](CCCN)C(=O)NCCCCCCCCCCC(=O)O)NC(=O)[C@H](CO)NC(=O)[C@H](C(C)C)NC(=O)[C@H](CC2CCCCC2)NC(=O)[C@H](CCN)NC(=O)[C@H](CC(C)C)NC(=O)[C@H](C)N(C)C(=O)[C@H](C(C)C)NC(=O)[C@H](Cc2ccc(-c3ccccc3)cc2)NC1=O [Example 1038] ({CH2CO}-Y(Carboxymethyl)[Phe(4-COOH)]DWL[Bip]V[NMeA]L[Dab][Cha]VSCG[Orn][Aun]-OH; thioether N-14)	13.2
Cc1cccc(C[C@@H]2NC(=O)[C@H](CC(=O)O)NC(=O)[C@H](Cc3ccc(C(=O)O)cc3)NC(=O)[C@H](CCN)NC(=O)CSC[C@@H](C(=O)N[C@@H](CCN)C(=O)NCCCCCCCCCCC(=O)O)NC(=O)[C@H](CO)NC(=O)[C@H](C(C)(C)O)NC(=O)[C@H](CC3CCCCC3)NC(=O)[C@H](CCN)NC(=O)[C@@H](CC(C)C)NC(=O)[C@H](C)N(C)C(=O)[C@H](Cc3ccc(OCC(=O)O)cc3)NC(=O)[C@H](Cc3ccc(-c4ccccc4)cc3)NC(=O)[C@H](Cc3ccccc3F)NC2=O)c1 [Example 1289] ({CH2CO}-[Dab][Phe(4-COOH)]D[Phe(3-Me)][Phe(2-F)][Bip]Y(Carboxymethyl)[NMeA][dL][Dab][Cha][Val(3-OH)]SC[Dab][Aun]-OH; thioether N-14)	32.4
CC(C)C[C@@H]1NC(=O)[C@H](Cc2c[nH]c3ccccc23)NC(=O)[C@H](CC(=O)O)NC(=O)[C@H](Cc2ccc(OCC(=O)O)cc2)NC(=O)[C@H](Cc2ccc(OCC(=O)O)cc2)NC(=O)CSC[C@@H](C(=O)NCCOCCOCC(=O)NCCCCCCCCCCC(=O)O)NC(=O)[C@H](CO)NC(=O)[C@H](Cc2cnc[nH]2)NC(=O)[C@H](CC2CCCCC2)NC(=O)[C@H](CCC(=O)O)NC(=O)[C@@H](CC(C)C)NC(=O)[C@H](C)N(C)C(=O)[C@H](C(C)C)NC(=O)[C@H](Cc2ccc(-c3ccccc3)cc2)NC1=O [Example 2449] ({CH2CO}-Y(Carboxymethyl)Y(Carboxymethyl)DWL[Bip]V[NMeA][dL]E[Cha]HSC[AEEA][Aun]-OH; thioether N-14)	272

Other lines, results leading:

IC50 [nM]	Structure (SMILES)
116	Cc1cccc(C[C@@H]2NC(=O)[C@H](CC(=O)O)NC(=O)[C@H](Cc3ccc(OCC(=O)O)cc3)NC(=O)[C@H]([C@@H](C)O)NC(=O)CSC[C@@H](C(=O)N[C@H](CC(N)=O)C(=O)NCCCCCCCCCCC(=O)O)NC(=O)[C@H](CCC(=O)O)NC(=O)[C@H](C(C)(C)O)NC(=O)[C@H](CC3CCCCC3)NC(=O)[C@H](CCN)NC(=O)[C@@H](CC(C)C)NC(=O)[C@H](C)N(C)C(=O)[C@H](Cc3ccc(OCC(=O)O)cc3)NC(=O)[C@H](Cc3ccc(-c4ccccc4)cc3)NC(=O)[C@H](Cc3ccc(OCC(=O)O)cc3)NC2=O)c1 [Example 1420] ({CH2CO}-TY(Carboxymethyl)D[Phe(3-Me)]Y(Carboxymethyl)[Bip]Y(Carboxymethyl)[NMeA][dL][Dab][Cha][Val(3-OH)]EC[dN][Aun]-OH; thioether N-14)
21.3	Cc1cccc(C[C@@H]2NC(=O)[C@H](CC(=O)O)NC(=O)[C@H](Cc3ccc(OCC(=O)O)cc3)NC(=O)[C@H](C(C)O)NC(=O)CSC[C@@H](C(=O)N[C@@H](CCN)C(=O)NCCCCCCCCCCC(=O)O)NC(=O)[C@H](C(C)O)NC(=O)[C@H](C(C)C)NC(=O)[C@H](CC3CCCCC3)NC(=O)[C@H](CCN)NC(=O)[C@@H](CC(C)C)NC(=O)[C@H](C)N(C)C(=O)[C@H](Cc3ccc(C(=O)O)cc3)NC(=O)[C@H](Cc3ccc(-c4ccccc4)cc3)NC(=O)[C@H](Cc3ccc(C(=O)O)cc3)NC2=O)c1 (stereo partly drawn) [Example 2311] ({CH2CO}-[Thr(3ξ)]Y(Carboxymethyl)D[Phe(3-Me)][Phe(4-COOH)][Bip][Phe(4-COOH)][NMeA][dL][Dab][Cha]V[Thr(3ξ)]C[Dab][Aun]-OH; thioether N-14)

Same assay, conditions: PE-labeled PD-L1-Ig 20 nM final, Jurkat-hPD-1 cells; read-out: Jurkat HPD1 PDL1 IC50

Structure (SMILES)	IC50 [nM]
CCC(C)[C@@H]1NC(=O)[C@H](Cc2ccc(-c3ccccc3)cc2)NC(=O)[C@H](CC(C)C)NC(=O)[C@H](Cc2c[nH]c3ccccc23)NC(=O)[C@H](CC(=O)O)NC(=O)[C@H](Cc2ccc(OCC(=O)O)cc2)NC(=O)[C@H](C(C)O)NC(=O)CSC[C@@H](C(=O)N[C@@H](CCN)C(=O)NCCOCCOCC(=O)NCCCCCCCCCCC(=O)O)NC(=O)[C@H](CCC(=O)O)NC(=O)[C@H](C(C)(C)O)NC(=O)[C@H](CC2CCCCC2)NC(=O)[C@H](CCN)NC(=O)[C@@H](CC(C)C)NC(=O)[C@H](C)N(C)C1=O (stereo partly drawn) [Example 2509] ({CH2CO}-[Thr(3ξ)]Y(Carboxymethyl)DWL[Bip][Ile(3ξ)][NMeA][dL][Dab][Cha][Val(3-OH)]EC[Dab][AEEA][Aun]-OH; thioether N-14)	13
CCCC[C@@H]1NC(=O)CSC[C@@H](C(=O)N[C@@H](CCN)C(=O)NCCOCCOCC(=O)N[C@@H](CCC(=O)NCCOCCOCC(=O)NCCCCCCCCCCCCC(=O)O)C(=O)O)NC(=O)[C@H](CCC(=O)O)NC(=O)[C@H](C(C)C)NC(=O)[C@H](CC2CCCCC2)NC(=O)[C@H](CCN)NC(=O)[C@@H](CC(C)C)NC(=O)[C@H](C)N(C)C(=O)[C@H](Cc2ccc(OCC(=O)O)cc2)NC(=O)[C@H](Cc2ccc(-c3ccccc3)cc2)NC(=O)[C@H](Cc2ccc(OCC(=O)O)cc2)NC(=O)[C@H](Cc2cccc(C)c2)NC(=O)[C@H](CC(=O)O)NC(=O)[C@H](Cc2ccc(OCC(=O)O)cc2)NC1=O [Example 2657] ({CH2CO}-[Nle]Y(Carboxymethyl)D[Phe(3-Me)]Y(Carboxymethyl)[Bip]Y(Carboxymethyl)[NMeA][dL][Dab][Cha]VEC[Dab][AEEA][γGlu][AEEA]-{NH(CH2)12COOH}; thioether N-14)	88.3
CC(C)C[C@@H]1NC(=O)[C@H](Cc2c[nH]c3ccccc23)NC(=O)[C@H](CC(=O)O)NC(=O)[C@H](Cc2ccc(OCC(=O)O)cc2)NC(=O)[C@H](Cc2ccc(OCC(=O)O)cc2)NC(=O)CSC[C@@H](C(=O)NCCOCCOCC(=O)NCCCCCCCCCCC(=O)O)NC(=O)[C@H](Cc2cnc[nH]2)NC(=O)[C@H](CO)NC(=O)[C@H](CC2CCCCC2)NC(=O)[C@H](CCN)NC(=O)[C@@H](CC(C)C)NC(=O)[C@H](C)N(C)C(=O)[C@H](C(C)C)NC(=O)[C@H](Cc2ccc(-c3ccccc3)cc2)NC1=O [Example 2436] ({CH2CO}-Y(Carboxymethyl)Y(Carboxymethyl)DWL[Bip]V[NMeA][dL][Dab][Cha]SHC[AEEA][Aun]-OH; thioether N-14)	31.4
Cc1cccc(C[C@@H]2NC(=O)[C@H](CC(=O)O)NC(=O)[C@H](Cc3ccc(OCC(=O)O)cc3)NC(=O)[C@H](C(C)O)NC(=O)CSC[C@@H](C(=O)N[C@@H](CCN)C(=O)NCCOCCOCC(=O)N[C@@H](CCC(=O)NCCOCCOCC(=O)NCCCCCCCCCCCCC(=O)O)C(=O)O)NC(=O)[C@H](CCC(=O)O)NC(=O)[C@H](C(C)C)NC(=O)[C@H](CC3CCCCC3)NC(=O)[C@H](CCN)NC(=O)[C@@H](CC(C)C)NC(=O)[C@H](C)N(C)C(=O)[C@H](Cc3ccc(OCC(=O)O)cc3)NC(=O)[C@H](Cc3ccc(-c4ccccc4)cc3)NC(=O)[C@H](Cc3ccc(OCC(=O)O)cc3)NC2=O)c1 (stereo partly drawn) [Example 2656] ({CH2CO}-[Thr(3ξ)]Y(Carboxymethyl)D[Phe(3-Me)]Y(Carboxymethyl)[Bip]Y(Carboxymethyl)[NMeA][dL][Dab][Cha]VEC[Dab][AEEA][γGlu][AEEA]-{NH(CH2)12COOH}; thioether N-14)	85.6

Now from value to molecule:

IC50 [nM]	Structure (SMILES)
2.7	CC(=O)NCCCC[C@@H]1NC(=O)[C@H](C(C)(C)O)NC(=O)[C@H](CC2CCCCC2)NC(=O)[C@H](CCN)NC(=O)[C@@H](CC(C)C)NC(=O)[C@H](C)N(C)C(=O)[C@H](CCCNC(N)=O)NC(=O)[C@H](Cc2ccc(-c3ccccc3)cc2)NC(=O)[C@H](Cc2ccc(C(=O)O)cc2)NC(=O)[C@H](Cc2cccc(C(F)(F)F)c2)NC(=O)[C@H](CC(=O)O)NC(=O)[C@H](Cc2ccc(OCC(=O)O)cc2)NC(=O)[C@H](Cc2ccc(OCC(=O)O)cc2)NC(=O)CSC[C@@H](C(=O)N[C@@H](CCN)C(=O)NCCCCCCCCCCC(=O)O)NC1=O [Example 2570] ({CH2CO}-Y(Carboxymethyl)Y(Carboxymethyl)D[Phe(3-CF3)][Phe(4-COOH)][Bip][Cit][NMeA][dL][Dab][Cha][Val(3-OH)]K(Ac)C[Dab][Aun]-OH; thioether N-14)
11.5	Cc1cccc(C[C@@H]2NC(=O)[C@H](CC(=O)O)NC(=O)[C@H](Cc3ccc(OCC(=O)O)cc3)NC(=O)[C@H](Cc3ccncc3)NC(=O)CSC[C@@H](C(=O)N[C@@H](CCN)C(=O)NCCOCCOCC(=O)NCCCCCCCCCCC(=O)O)NC(=O)[C@H](CCC(=O)O)NC(=O)[C@H](C(C)(C)O)NC(=O)[C@H](CC3CCCCC3)NC(=O)[C@H](CCN)NC(=O)[C@@H](CC(C)C)NC(=O)[C@H](C)N(C)C(=O)[C@H](Cc3ccc(C(=O)O)cc3)NC(=O)[C@H](Cc3ccc(-c4ccccc4)cc3)NC(=O)[C@H](Cc3ccc(C(=O)O)cc3)NC2=O)c1 [Example 2485] ({CH2CO}-[4Pal]Y(Carboxymethyl)D[Phe(3-Me)][Phe(4-COOH)][Bip][Phe(4-COOH)][NMeA][dL][Dab][Cha][Val(3-OH)]EC[Dab][AEEA][Aun]-OH; thioether N-14)
